According to patent US20220331237A1, “DEVICE, METHODS AND USES FOR TREATING ANAPHYLAXIS” (1232176 B.C. Ltd., priority 2021, published 2022):
Read-outs that look alike come from different tables or passages of the source.

What was measured:
[1] = Procedure: Briefly, a Next Generation Impactor (Model 170 NGI; Copley) was used to capture dose exiting a regular non-sectioned AIT (used here to minimize assay steps) at an inhalation flowrate of 30 L/min. Interior surfaces of the AIT and the impaction plates within the NGI were coated with silicone grease (Molykote 316; Dow Corning) prior to testing. […] Following actuation, the AIT was washed twice with 10 mL of 0.1 N HCl, while each plate of the NGI was washed once with 5 mL of 0.1 N HCl. Samples were assayed via UV spectroscopy at the absorbance maximum of 279 nm, as discussed above.
Tests were performed using the 0.22 mm actuator orifice with Primatene Mist HFA. Both transverse and coaxial insertion angles were used, with three repeated measures taken at each orientation. Particle size distributions were characterized via calculation of the mass median aerodynamic diameter (MMAD) and geometric standard deviation (GSD) via linear interpolation (e.g., Hinds W C. 2nd ed. Hoboken, N.J.: Wiley; 1999). A validated regional lung deposition model (e.g., Javaheri et al., J Aerosol Sci. 2013, 64:81-93 and Finlay et al., Lung Delivery of Aerosolized Dextran. 2000, 161:91-7) was used to estimate tracheobronchial and alveolar deposition from the measured particle size distributions under a simulated breath with an inhaled volume of 3.0 L, inhalation flowrate of 30 L/min, a pause between inhalation of (i) 0 or (ii) 10 seconds, and exhalation flowrate of 30 L/min.

[2] = test system: grade 2 or higher acute allergic reaction
Excerpt: Institutional Review Board approval was obtained for the study and informed consent was obtained from study participants.

[3] = Commercial actuator, previously reported, cited from earlier work
[4] = 0.22 mm actuator orifice, unaffected by insertion angle
[5] = 0.22 mm actuator, Coaxial, 30 L/min
[6] = 0.22 mm actuator, Transverse, 30 L/min

## CNCC(O)c1ccc(O)c(O)c1 (stereo not drawn) [epinephrine, 4-(1-hydroxy-2-(methylamino)ethyl)benzene-1,2-diol]
[1]; [4]
  GSD: ~1.63
  MMAD: approximately 2 μm
[1]; [5]
  Deposition, NGI Stage 1: 1.9 µg
  Deposition, NGI Stage 2: 1.9 µg
  Deposition, NGI Stage 3: 8.5 µg
  Deposition, NGI Stage 4: 82.6 µg
  Deposition, NGI Stage 5: 122.2 µg
  Deposition, NGI Stage 6: 42.0 µg
  Deposition, NGI Stage 7: 7.6 µg
  Deposition, NGI Stage 8: 0.0 µg
  Deposition, Throat: 78.6 µg
  Deposition, Total Recovered: 345.2 µg
  MMAD (mass median aerodynamic diameter): 2.00 μm
[1]; [6]
  Deposition, NGI Stage 1: 1.5 µg
  Deposition, NGI Stage 2: 1.4 µg
  Deposition, NGI Stage 3: 8.8 µg
  Deposition, NGI Stage 4: 80.8 µg
  Deposition, NGI Stage 5: 121.7 µg
  Deposition, NGI Stage 6: 43.6 µg
  Deposition, NGI Stage 7: 9.5 µg
  Deposition, NGI Stage 8: 0.0 µg
  Deposition, Throat: 95.8 µg
  Deposition, Total Recovered: 363.0 µg
  MMAD (mass median aerodynamic diameter): 1.98 μm
[1]; Commercial actuator, Coaxial, calculated here from previously reported deposition
  MMAD (mass median aerodynamic diameter): 2.05 μm
[1]; Commercial actuator, Transverse, calculated here from previously reported deposition
  MMAD (mass median aerodynamic diameter): 1.93 μm
[2]; Patient 1, 4 puffs given
  Tachycardia: Yes
  Time to Resolution of Allergic Reaction After Treatment Initiated: 3 min
  Tremors: Yes
[2]; Patient 2, 4 puffs given
  Tachycardia: Yes
  Time to Resolution of Allergic Reaction After Treatment Initiated: within 2 mins
  Tremors: Yes
[2]; Patient 3, 4 puffs given
  Tachycardia: Yes
  Time to Resolution of Allergic Reaction After Treatment Initiated: 0.5 min
  Tremors: Yes
[2]; Patient 4, 2 puffs given
  Tachycardia: Yes
  Time to Resolution of Allergic Reaction After Treatment Initiated: 1 min
  Tremors: Yes
[2]; Patient 5, 6 puffs given
  Tachycardia: Yes
  Time to Resolution of Allergic Reaction After Treatment Initiated: 6 min
  Tremors: Yes
[2]; Patient 6, 9 puffs given
  Tachycardia: Yes
  Tremors: Yes
[2]; Patient 6, 9 puffs given, entry runs on: resolved after 5 puffs, but recurred after 5 mins
  Time to Resolution of Allergic Reaction After Treatment Initiated: resolved after 5
[2]; Patient 6, 9 puffs given, resolved after 5 puffs
  Time to recurrence of allergic reaction after resolution: after 5 mins
[2]; Patient 7, 2 puffs given
  Tachycardia: Yes
  Time to Resolution of Allergic Reaction After Treatment Initiated: 2 min
  Tremors: Yes
[2]; Patient 8, 2 puffs given
  Tachycardia: Yes
  Time to Resolution of Allergic Reaction After Treatment Initiated: 1 min
  Tremors: Yes
[2]; Patient 9, 2 puffs given
  Tachycardia: Yes
  Time to Resolution of Allergic Reaction After Treatment Initiated: 1 min
  Tremors: Yes
[2]; Patient 10, 5 puffs given
  Tachycardia: Yes
  Time to Resolution of Allergic Reaction After Treatment Initiated: 1 min
  Tremors: Yes
[2]; Patient 11, 2 puffs given
  Tachycardia: Yes
  Tremors: Yes
[2]; Patient 12, 2 puffs given
  Tachycardia: Yes
  Time to Resolution of Allergic Reaction After Treatment Initiated: 1 min
  Tremors: Yes
[2]; Patient 13, 2 puffs given
  Tachycardia: Yes
  Time to Resolution of Allergic Reaction After Treatment Initiated: 1 min
  Tremors: Yes
[2]; Patient 14, 2 puffs given
  Tachycardia: Yes
  Time to Resolution of Allergic Reaction After Treatment Initiated: 1 min
  Tremors: Yes
[2]; Patient 15, 6 puffs given
  Tachycardia: Yes
  Time to Resolution of Allergic Reaction After Treatment Initiated: 4 min
  Tremors: Yes
[2]; Patient 16, 4 puffs given
  Tachycardia: Yes
  Time to Resolution of Allergic Reaction After Treatment Initiated: 1.5 min
  Tremors: Yes
[2]; Patient 17, 3 puffs given
  Tachycardia: Yes
  Time to Resolution of Allergic Reaction After Treatment Initiated: 1.5 min
  Tremors: Yes
[2]; Patient 18, 2 puffs given
  Tachycardia: Yes
  Time to Resolution of Allergic Reaction After Treatment Initiated: within 30 secs
  Tremors: Yes
[2]; Patient 19, 4 + 2 puffs given
  Tachycardia: Yes
  Time to recurrence of allergic reaction after resolution: after 10 mins, then
  Tremors: Yes
[2]; Patient 19, 4 + 2 puffs given, after recurrence
  Time to resolution of the recurred allergic reaction: resolved in 1 min
[2]; Patient 19, 4 + 2 puffs given, initial resolution
  Time to Resolution of Allergic Reaction After Treatment Initiated: 1 minute, recurred
[2]; all study participants
  Need for treatment with intramuscular epinephrine: No study participants required treatment with intramuscular epinephrine
[2]; all study participants, Primatene Mist HFA via Bespak BK633 actuator (0.22 mm)
  Resolution of clinical symptoms (laryngopharyngeal and systemic): prompt resolution of clinical symptoms
[2]; all study participants, further doses of oral inhaled epinephrine given
  Recurrence of symptoms after initial resolution: In two instances symptoms recurred after initial resolution and again resolved promptly
[3]; Coaxial
  Deposition, NGI Stage 1: 2.1 µg
  Deposition, NGI Stage 2: 2.5 µg
  Deposition, NGI Stage 3: 11.1 µg
  Deposition, NGI Stage 4: 72.9 µg
  Deposition, NGI Stage 5: 99.1 µg
  Deposition, NGI Stage 6: 34.1 µg
  Deposition, NGI Stage 7: 6.3 µg
  Deposition, NGI Stage 8: 0.0 µg
  Deposition, Throat: 136.3 µg
  Deposition, Total Recovered: 364.3 µg
[3]; Transverse
  Deposition, NGI Stage 1: 0.8 µg
  Deposition, NGI Stage 2: 1.1 µg
  Deposition, NGI Stage 3: 6.8 µg
  Deposition, NGI Stage 4: 56.0 µg
  Deposition, NGI Stage 5: 96.8 µg
  Deposition, NGI Stage 6: 37.7 µg
  Deposition, NGI Stage 7: 6.6 µg
  Deposition, NGI Stage 8: 0.0 µg
  Deposition, Throat: 212.9 µg
  Deposition, Total Recovered: 418.8 µg
